Patent US8450527B2, “Amine derivative compounds for treating ophthalmic diseases and disorders” (Acucela Inc., priority 2007, dated 2013)

Target: T1, isomerase (Mus musculus, UniProt Q91ZQ5)
T1 construct: The recovery of 11-cis-retinal after bleaching can be used to estimate the activity of isomerase in vivo; from tissue; host or cells: eye (RPE) of living CD-1 albino male mice
T1 sequence (Q91ZQ5 1-533): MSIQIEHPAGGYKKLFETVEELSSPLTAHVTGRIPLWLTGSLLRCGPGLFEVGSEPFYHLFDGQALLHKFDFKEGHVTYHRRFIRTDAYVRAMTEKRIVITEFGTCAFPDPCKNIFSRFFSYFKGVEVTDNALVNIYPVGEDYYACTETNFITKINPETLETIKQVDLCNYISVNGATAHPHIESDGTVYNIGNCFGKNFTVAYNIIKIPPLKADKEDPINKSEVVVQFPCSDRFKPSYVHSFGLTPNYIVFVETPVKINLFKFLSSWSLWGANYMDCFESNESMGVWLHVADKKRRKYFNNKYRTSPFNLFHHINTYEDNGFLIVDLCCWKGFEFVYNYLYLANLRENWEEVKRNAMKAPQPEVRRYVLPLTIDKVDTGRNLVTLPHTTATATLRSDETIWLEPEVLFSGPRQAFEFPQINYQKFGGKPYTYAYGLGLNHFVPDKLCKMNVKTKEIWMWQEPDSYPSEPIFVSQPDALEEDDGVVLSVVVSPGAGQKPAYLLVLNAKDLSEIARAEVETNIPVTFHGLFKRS
Assay: In vivo murine isomerase assay (recovery of 11-cis-retinal after photobleaching)
Set-up: species or system CD-1 (albino) male mice
Conditions: for % Inhibition 1 mg/kg 4 h / % Inhibition 1 mg/kg 24 h / % Inhibition 5 mg/kg 4 h / % Inhibition 5 mg/kg 24 h: CD1 male mice; for % Inhibition 1 mg/kg 4 h / % Inhibition 1 mg/kg 24 h: single oral dose 1 mg/kg; for % Inhibition 1 mg/kg 4 h / % Inhibition 5 mg/kg 4 h: photobleaching 4 h post dosing; for % Inhibition 1 mg/kg 24 h / % Inhibition 5 mg/kg 24 h: photobleaching 24 h post dosing; for % Inhibition 5 mg/kg 4 h / % Inhibition 5 mg/kg 24 h: single oral dose 5 mg/kg; for ED50: mouse, po, read-out: ED50 (dose of compound that gives 50% inhibition of 11-cis retinal (oxime) recovery), CD-1 male mice, oral gavage, photobleached 4 hours after dosing
Protocol: The capability of amine derivative compounds to inhibit isomerase was determined by an in vivo murine isomerase assay. Brief exposure of the eye to intense light (“photobleaching” of the visual pigment or simply “bleaching”) is known to photo-isomerize almost all 11-cis-retinal in the retina. The recovery of 11-cis-retinal after bleaching can be used to estimate the activity of isomerase in vivo.
Delayed recovery, as represented by lower 11-cis-retinal oxime levels, indicates inhibition of isomerization reaction. Procedures were performed essentially as described by Golczak et al., Proc. Natl. Acad. Sci. USA 102:8162-67 (2005). See also Deigner et al., Science, 244: 968-71 (1989); Gollapalli et al., Biochim Biophys Acta. 1651: 93-101 (2003); Parish, et al., Proc. Natl. Acad. Sci. USA, 14609-13 (1998); Radu, et al., Proc Natl Acad Sci USA 101: 5928-33 (2004).
[…] Mice were orally gavaged with the several of the amine derivative compounds described herein. After 1-48 hours in the dark, the mice were exposed to photobleaching of 5,000 lux of white light for 10 minutes. The mice were allowed to recover 2 hours in the dark. The animals were then sacrificed by carbon dioxide inhalation. Retinoids were extracted from the eye and the regeneration of 11-cis-retinal was assessed at various time intervals.
All steps were performed in darkness with minimal redlight illumination (low light darkroom lights and redfiltered flashlights for spot illumination as needed) (see, e.g., Maeda et al., J. Neurochem 85:944-956, 2003; Van Hooser et al., J Biol Chem 277:19173-82, 2002). After the mice were sacrificed, the eyes were immediately removed and placed in liquid nitrogen for storage.
The eyes were placed in 500 μL of bis-tris propane buffer (10 mM, pH ˜7.3) and 20 μL of 0.8M hydroxylamine (pH˜7.3). The eyes were cut up into small pieces with small iris scissors and then thoroughly homogenized at 30000 rpm with a mechanical homogenizer (Polytron PT 1300 D) in the tube until no visible tissue remained. 500 μL of methanol and 500 μL of heptane were added to each tube. The tubes were attached to a vortexer so that the contents were mixed thoroughly for 15 minutes in room temperature. The organic phase was separated from the aqueous phase by centrifugation for 10 min at 13K rpm, 4° C. 240 μL of the solution from the top layer (organic phase) was removed and transferred to clean 300 μl glass inserts in HPLC vials using glass pipette and the vials were crimped shut tightly.
The samples were analyzed on an Agilent 1100 HPLC system with normal phase column: SILICA (Beckman Coutlier, dp 5 μm, […]). The running method has a flow rate of 1.5 ml/min; solvent components are 15% solvent 1 (1% isopropanol in ethyl acetate), and 85% solvent 2 (100% hexanes). Loading volume for each sample is 100 μl; detection wavelength is 360 nm. The area under the curve for 11-cis retinal oxime was calculated by Agilent Chemstation software and was recorded manually. Data processing was performed using Prizm software.
Positive control mice (no compound administered) were sacrificed fully dark-adapted and the eye retinoids analyzed. Light (bleached) control mice (no compound administered) were sacrificed and retinoids isolated and analyzed immediately after light treatment. The animals were orally gavaged with 1 mg/kg compound, then “photo-bleached” (5000 Lux white light for 10 minutes) at 4, 24 and 48 hours after dosing, and returned to darkness to allow recovery of the 11-cis-retinal content of the eyes. Mice were sacrificed 2 hours after bleaching, eyes were enucleated, and retinoid content was analyzed by HPLC.
A dose response in vivo isomerase inhibition study was performed with several of the amine derivative compounds described herein. Six-week old dark-adapted CD-1 (albino) male mice were orally gavaged with 0.03, 0.1, 0.3, 1 and 3 mg/kg of compound in sterile water as solution, and photobleached 4 hours after dosing. […]

% Inhibition 1 mg/kg 4 h	% Inhibition 1 mg/kg 24 h	Structure (SMILES)	also measured
6%	0%	NCCC(O)c1cccc(CCC2(O)CCCCCC2)c1 (stereo not drawn) [Example 16, 1-(3-(3-amino-1-hydroxypropyl)phenethyl)cycloheptanol]	–
84%	0%	NCCC(O)c1cccc(CCC2CCCC2)c1 (stereo not drawn) [Example 17, 3-amino-1-(3-(2-cyclopentylethyl)phenyl)propan-1-ol]	–
0%	2%	NCCCc1cccc(CCC2(O)CCCCCC2)c1 [Example 20, 1-(3-(3-aminopropyl)phenethyl)cycloheptanol]	–
6%	29%	CCCCCc1cccc(CCCN)c1 [Example 27, 3-(3-pentylphenyl)propan-1-amine]	–
0%	0%	CC(C)(C)CCc1cccc(CCCN)c1 [Example 29, 3-(3-(3,3-dimethylbutyl)phenyl)propan-1-amine]	% Inhibition 5 mg/kg 4 h: 62%; % Inhibition 5 mg/kg 24 h: 0%; ED50 (estimated): 4 mg/kg
0%	–	NCCCc1cccc(CCCCc2ccccc2)c1 [Example 35, 3-(3-(4-phenylbutyl)phenyl)propan-1-amine]	–

The remaining lines, values behind:

Structure (SMILES)	% Inhibition 1 mg/kg 4 h	% Inhibition 1 mg/kg 24 h	also measured
CCCC(O)(CCC)CCc1cccc(CCCN)c1 [Example 3, 4-(3-(3-aminopropyl)phenethyl)heptan-4-ol]	36%	13%	% Inhibition 5 mg/kg 4 h: 95%; % Inhibition 5 mg/kg 24 h: 0%; ED50 (estimated): 2 mg/kg
NCCCc1cccc(CCC2(O)CCCCC2)c1 [Example 7, 1-(3-(3-aminopropyl)phenethyl)cyclohexanol]	23%	12%	–
CCCC(O)(CCC)CCc1cccc(OCCN)c1 [Example 9, 4-(3-(2-aminoethoxy)phenethyl)heptan-4-ol]	12%	6%	–
NCCOc1cccc(CCC2(O)CCCCCC2)c1 [Example 10, 1-(3-(2-aminoethoxy)phenethyl)cycloheptanol]	9%	1%	–
NCCOc1cccc(CCC2(O)CCSCC2)c1 [Example 11, 4-(3-(2-aminoethoxy)phenethyl)tetrahydro-2H-thiopyran-4-ol]	0%	0%	–
NCCOc1cccc(CCC2(O)CCCCC2)c1 [Example 12, 1-(3-(2-aminoethoxy)phenethyl)cyclohexanol]	27%	12%	–
NCCC(O)c1cccc(CCC2(O)CCCCC2)c1 (stereo not drawn) [Example 15, 1-(3-(3-amino-1-hydroxypropyl)phenethyl)cyclohexanol]	–	–	ED50 (estimated): 2 mg/kg
CCCC(O)(CCC)CCc1cccc(C(O)CCN)c1 (stereo not drawn) [Example 19, 4-(3-(3-amino-1-hydroxypropyl)phenethyl)heptan-4-ol]	–	–	Inhibition of recovery of 11-cis retinal (oxime), dose dependence (0.03-3 mg/kg oral, 4 hours post dosing): dose related; ED50 (dose of compound that gives 50% inhibition of 11-cis retinal (oxime) recovery) (CD-1 male mice, oral gavage, photobleached 4 hours after dosing, estimated): 0.65 mg/kg; ED50 (estimated): 0.651 mg/kg
